Results reported in patent publication US11208400B2, “Substituted 6-(1H-pyrazol-1-yl)pyrimidin-4-amine derivatives and uses thereof” (Bayer Aktiengesellschaft, priority 2016, dated 2021).
Where a name gives a salt, the structure may show the parent alone.

Target: T1, human Npt2a (Homo sapiens, UniProt Q06495)
T1 construct: expressed in transfected cells
T1 sequence (Q06495 1-639): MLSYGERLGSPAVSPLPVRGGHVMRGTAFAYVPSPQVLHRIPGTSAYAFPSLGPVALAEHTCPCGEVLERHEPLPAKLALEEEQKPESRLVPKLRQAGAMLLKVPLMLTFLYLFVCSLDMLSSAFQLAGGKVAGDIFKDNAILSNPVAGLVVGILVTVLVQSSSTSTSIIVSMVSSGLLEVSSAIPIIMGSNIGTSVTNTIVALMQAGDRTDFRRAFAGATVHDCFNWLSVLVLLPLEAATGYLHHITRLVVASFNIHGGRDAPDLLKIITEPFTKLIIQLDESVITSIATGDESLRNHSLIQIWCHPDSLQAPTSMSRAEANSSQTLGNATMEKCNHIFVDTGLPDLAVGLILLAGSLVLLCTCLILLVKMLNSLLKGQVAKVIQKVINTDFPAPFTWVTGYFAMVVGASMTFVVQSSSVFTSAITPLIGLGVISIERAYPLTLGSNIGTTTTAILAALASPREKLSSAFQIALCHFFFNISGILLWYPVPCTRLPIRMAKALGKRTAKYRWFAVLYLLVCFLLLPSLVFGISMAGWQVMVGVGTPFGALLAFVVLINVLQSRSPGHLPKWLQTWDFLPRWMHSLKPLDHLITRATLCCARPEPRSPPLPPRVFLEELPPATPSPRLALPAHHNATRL
Experiment: Npt2a activity cell based assay, membrane potential dye, CHO T-REx hNpt2a cells
Conditions: doxycycline-induced, depolarization by sodium phosphate influx, average or median values if tested more than once
Method in brief: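 Cells were doxycycline-induced CHO T-REx hNpt2a, dye-loaded and pretreated 5 min at RT with 1 nM–50 μM compound in Na-free pH 7.4 buffer. IC50 was fit to the post/pre-trigger fluorescence ratio.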

Structure (SMILES)	IC50 [nM]
Cc1nn(-c2cc(Nc3c(C)c(-c4ccc(OC(F)F)cc4)nn3CC3CC3)ncn2)c(C)c1C#N [Example 477, 1-[6-({1-(cyclopropylmethyl)-3-[4-(difluoromethoxy)phenyl]-4-methyl-1H-pyrazol-5-yl}amino)pyrimidin-4-yl]-3,5-dimethyl-1H-pyrazole-4-carbonitrile]	98
Cc1nn(-c2cc(Nc3c(C)c(-c4ccc(OC(F)F)cc4)nn3CC3CC3)ncn2)c(C)c1C(F)(F)F [Example 478, N-{1-(cyclopropylmethyl)-3-[4-(difluoromethoxy)phenyl]-4-methyl-1H-pyrazol-5-yl}-6-[3,5-dimethyl-4-(trifluoromethyl)-1H-pyrazol-1-yl]pyrimidin-4-amine]	45
Cc1nn(-c2cc(Nc3nn(C)c(-c4ccc(F)cn4)c3C)ncn2)c(C)c1Cl [Example 479, 6-(4-chloro-3,5-dimethyl-1H-pyrazol-1-yl)-N-[5-(5-fluoropyridin-2-yl)-1,4-dimethyl-1H-pyrazol-3-yl]pyrimidin-4-amine]	18
CNc1ccc(-c2nn(CC3CC3)c(Nc3cc(-n4nc(C)cc4C)ncn3)c2C)cc1 [Example 480, N-{1-(cyclopropylmethyl)-4-methyl-3-[4-(methylamino)phenyl]-1H-pyrazol-5-yl}-6-(3,5-dimethyl-1H-pyrazol-1-yl)pyrimidin-4-amine]	375
Cc1cc(C(F)F)n(-c2cc(Nc3c(C)c(-c4ccc(C(F)F)nc4)nn3C)ncn2)n1 [Example 481, 6-[5-(difluoromethyl)-3-methyl-1H-pyrazol-1-yl]-N-{3-[6-(difluoromethyl)pyridin-3-yl]-1,4-dimethyl-1H-pyrazol-5-yl}pyrimidin-4-amine]	1400
COc1ccc(-c2nn(CC3CC3)c(Nc3cc(-n4nc(C)c(Cl)c4C)ncn3)c2C)cc1 [Example 482, 6-(4-chloro-3,5-dimethyl-1H-pyrazol-1-yl)-N-[1-(cyclopropylmethyl)-3-(4-methoxyphenyl)-4-methyl-1H-pyrazol-5-yl]pyrimidin-4-amine]	52
COc1ccc(-c2nn(CC3CC3)c(Nc3cc(-n4nc(C)c(C#N)c4C)ncn3)c2C)cc1 [Example 483, 1-(6-{[1-(cyclopropylmethyl)-3-(4-methoxyphenyl)-4-methyl-1H-pyrazol-5-yl]amino}pyrimidin-4-yl)-3,5-dimethyl-1H-pyrazole-4-carbonitrile]	1250
Cc1nn(-c2cc(Nc3c(C)c(-c4ccc(F)cc4)nn3CC3CC3)ncn2)c(C)c1N [Example 484, 6-(4-amino-3,5-dimethyl-1H-pyrazol-1-yl)-N-[1-(cyclopropylmethyl)-3-(4-fluorophenyl)-4-methyl-1H-pyrazol-5-yl]pyrimidin-4-amine trifluoroacetate]	36
Cc1nn(-c2cc(Nc3c(C)c(-c4ccc(C(F)F)nc4)nn3C)ncn2)c(C)c1F [Example 485, N-{3-[6-(difluoromethyl)pyridin-3-yl]-1,4-dimethyl-1H-pyrazol-5-yl}-6-(4-fluoro-3,5-dimethyl-1H-pyrazol-1-yl)pyrimidin-4-amine]	1350
COc1ccc(-c2nn(CC3CC3)c(Nc3cc(-n4nc(C)c(C(F)(F)F)c4C)ncn3)c2C)cc1 [Example 486, N-[1-(cyclopropylmethyl)-3-(4-methoxyphenyl)-4-methyl-1H-pyrazol-5-yl]-6-[3,5-dimethyl-4-(trifluoromethyl)-1H-pyrazol-1-yl]pyrimidin-4-amine]	59
CNc1ccc(-c2nn(CC3CC3)c(Nc3cc(-n4nc(C)cc4C(F)F)ncn3)c2C)cc1 [Example 487, N-{1-(cyclopropylmethyl)-4-methyl-3-[4-(methylamino)phenyl]-1H-pyrazol-5-yl}-6-[5-(difluoromethyl)-3-methyl-1H-pyrazol-1-yl]pyrimidin-4-amine]	150
CNc1ccc(-c2nn(CC3CC3)c(Nc3cc(-n4nc(C)c(C(F)(F)F)c4C)ncn3)c2C)cc1 [Example 488, N-{1-(cyclopropylmethyl)-4-methyl-3-[4-(methylamino)phenyl]-1H-pyrazol-5-yl}-6-[3,5-dimethyl-4-(trifluoromethyl)-1H-pyrazol-1-yl]pyrimidin-4-amine]	65
COc1ccc(-c2nn(CC3CC3)c(Nc3cc(-n4nc(C)cc4C(F)F)ncn3)c2C)cc1 [Example 489, N-[1-(cyclopropylmethyl)-3-(4-methoxyphenyl)-4-methyl-1H-pyrazol-5-yl]-6-[5-(difluoromethyl)-3-methyl-1H-pyrazol-1-yl]pyrimidin-4-amine]	270
CC(=O)Cc1c(C)nn(-c2cc(Nc3c(C)c(-c4ccc(F)cc4)nn3CC3CC3)ncn2)c1C [Example 490, 1-[1-(6-{[1-(cyclopropylmethyl)-3-(4-fluorophenyl)-4-methyl-1H-pyrazol-5-yl]amino}pyrimidin-4-yl)-3,5-dimethyl-1H-pyrazol-4-yl]propan-2-one]	6
COc1ccc(-c2nn(CC3CC3)c(Nc3cc(-n4nc(C)cc4C)ncn3)c2C)cc1 [Example 491, N-[1-(cyclopropylmethyl)-3-(4-methoxyphenyl)-4-methyl-1H-pyrazol-5-yl]-6-(3,5-dimethyl-1H-pyrazol-1-yl)pyrimidin-4-amine]	220
CCOC(=O)Cc1c(C)nn(-c2cc(Nc3nn(C)c(-c4ccc(C#N)cc4)c3OC)ncn2)c1C [Example 492, ethyl [1-(6-{[5-(4-cyanophenyl)-4-methoxy-1-methyl-1H-pyrazol-3-yl]amino}pyrimidin-4-yl)-3,5-dimethyl-1H-pyrazol-4-yl]acetate]	13
COc1c(Nc2cc(-n3nc(C)c(OC)c3C)ncn2)nn(C)c1-c1ccc(C#N)cc1 [Example 493, 4-(4-methoxy-3-{[6-(4-methoxy-3,5-dimethyl-1H-pyrazol-1-yl)pyrimidin-4-yl]amino}-1-methyl-1H-pyrazol-5-yl)benzonitrile]	625
COc1ccc(-c2nn(C)c(Nc3cc(-n4nc(C)c(C(F)(F)F)c4C)ncn3)c2C)cn1 [Example 494, 6-[3,5-dimethyl-4-(trifluoromethyl)-1H-pyrazol-1-yl]-N-[3-(6-methoxypyridin-3-yl)-1,4-dimethyl-1H-pyrazol-5-yl]pyrimidin-4-amine]	190
CC(=O)Oc1c(C)nn(-c2cc(Nc3c(C)c(-c4ccc(F)cc4)nn3CC3CC3)ncn2)c1C [Example 497, 1-(6-{[1-(cyclopropylmethyl)-3-(4-fluorophenyl)-4-methyl-1H-pyrazol-5-yl]amino}pyrimidin-4-yl)-3,5-dimethyl-1H-pyrazol-4-yl acetate]	3
COc1ccc(-c2nn(CC3CC3)c(Nc3cc(-n4nc(C)c(Cl)c4C)ncn3)c2C)cn1 [Example 498, 6-(4-chloro-3,5-dimethyl-1H-pyrazol-1-yl)-N-[1-(cyclopropylmethyl)-3-(6-methoxypyridin-3-yl)-4-methyl-1H-pyrazol-5-yl]pyrimidin-4-amine]	1310
COc1ccc(-c2nn(C)c(Nc3cc(-n4nc(C)cc4C(F)F)ncn3)c2C)cn1 [Example 499, 6-[5-(difluoromethyl)-3-methyl-1H-pyrazol-1-yl]-N-[3-(6-methoxypyridin-3-yl)-1,4-dimethyl-1H-pyrazol-5-yl]pyrimidin-4-amine]	3150
Cc1nn(-c2cc(Nc3nn(C)c(-c4ccc(F)cc4)c3OC(F)F)ncn2)c(C)c1C(C)(C)O [Example 500, 2-[1-(6-{[4-(difluoromethoxy)-5-(4-fluorophenyl)-1-methyl-1H-pyrazol-3-yl]amino}pyrimidin-4-yl)-3,5-dimethyl-1H-pyrazol-4-yl]propan-2-ol]	52
CCNc1c(C)nn(-c2cc(Nc3c(C)c(-c4ccc(F)cc4)nn3CC3CC3)ncn2)c1C [Example 501, N-[1-(cyclopropylmethyl)-3-(4-fluorophenyl)-4-methyl-1H-pyrazol-5-yl]-6-[4-(ethylamino)-3,5-dimethyl-1H-pyrazol-1-yl]pyrimidin-4-amine trifluoroacetate]	5
CC(=O)c1c(C)nn(-c2cc(Nc3c(C)c(-c4ccc(F)cc4)nn3CC3CC3)ncn2)c1C [Example 502, 1-[1-(6-{[1-(cyclopropylmethyl)-3-(4-fluorophenyl)-4-methyl-1H-pyrazol-5-yl]amino}pyrimidin-4-yl)-3,5-dimethyl-1H-pyrazol-4-yl]ethanone]	5
COCc1c(C)nn(-c2cc(Nc3c(C)c(-c4ccc(F)cc4)nn3CC3CC3)ncn2)c1C [Example 503, N-[1-(cyclopropylmethyl)-3-(4-fluorophenyl)-4-methyl-1H-pyrazol-5-yl]-6-[4-(methoxymethyl)-3,5-dimethyl-1H-pyrazol-1-yl]pyrimidin-4-amine]	4
COc1ccc(-c2nn(C)c(Nc3cc(-n4nc(C)c(Cl)c4C)ncn3)c2C)cn1 [Example 505, 6-(4-chloro-3,5-dimethyl-1H-pyrazol-1-yl)-N-[3-(6-methoxypyridin-3-yl)-1,4-dimethyl-1H-pyrazol-5-yl]pyrimidin-4-amine]	1200
Cc1nn(-c2cc(Nc3c(C)c(-c4ccc(F)cc4)nn3CC3CC3)ncn2)c(C)c1OCC#N [Example 506, {[1-(6-{[1-(cyclopropylmethyl)-3-(4-fluorophenyl)-4-methyl-1H-pyrazol-5-yl]amino}pyrimidin-4-yl)-3,5-dimethyl-1H-pyrazol-4-yl]oxy}acetonitrile]	28
